In US11478451B1, “Macrocyclic chlorine substituted indole derivatives” (Bayer Aktiengesellschaft, priority 2017, dated 2022) one finds EC50 and IC50 data, which are given here for ten compounds.

The subject of data set [1] is SUDHL10 cells. Put plainly: Induction of caspase-3/7 activity (Caspase-Glo 3/7), SUDHL10. Format: cell-based. The note with it: EC50, median, SUDHL10, 3 h treatment. The method in brief:
(§1)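 Caspase-3/7 activation measured by Caspase-Glo 3/7 after a 3 h compound exposure of diffuse large B-cell lymphoma cells at 37 °C. Values corrected by subtracting the medium-only background.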

The subject of a further data set is DMS-114 cells. Put plainly: Antiproliferation assay (CellTiter-Glo, 72 h), DMS-114. The format is cell-based. Particulars: Homo sapiens, DMS-114, 72 h; read-out: Antiproli DMS-114 [M] median. As to the method:
(§2) Assessment of the Anti-Proliferative Effect of Compounds in Different Cell Lines
(§3) The impact of compounds on the proliferation of different cell lines was assessed using the CellTiter-Glo® Luminescent Cell Viability reagent from Promega (G7573).
(§4) In parallel, cells were plated in a reference (day 0) plate for time zero determination.
(§5) Rim wells were excluded. The cells were incubated for 72 h hours in a humidified incubator at 37° C. The day 0 plate was measured by adding 30 μL/well of CTG solution (CellTiter-Glo® Luminescent Cell Viability reagent, Promega G7573) to time zero wells in the reference plate followed by a 10 minutes incubation and luminescence reading at 0.1 ms. using the PHERAstar FS microplate reader (BMG Labtech).
(§6) After 72 h incubation, the treated plates were measured in the same way as the day 0 plate mentioned above.

The subject of data set [2] is SUDHL10 cells. Put plainly: Induction of cytotoxicity (CellTiter-Glo, 5 h), SUDHL10. Particulars: SUDHL10, 5 h.
The next data set deals with AMO-1 cells. The data set can be described thus: Antiproliferation assay (CellTiter-Glo, 72 h), AMO-1. The format is cell-based. Particulars: IC50, median, AMO-1, 72 h, read-out: Antiproli AMO-1 [M] median. The gist of the method: (§7)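 A reference plate measured at day 0 set the time-zero baseline. Treated plates were read by CellTiter-Glo luminescence after 72 h of compound exposure at 37°C in a humidified incubator.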

In a further data set the test system is SNU-389 cells. The data set can be described thus: Antiproliferation assay (CellTiter-Glo, 72 h), SNU-389. The format is cell-based. Particulars: read-out: Antiproli SNU-389 [M] median. As for the experimental part: as §2, §3, §4, §5, §6
In a further data set the test system is HMC-1-8 cells. The data set can be described thus: Antiproliferation assay (CellTiter-Glo, 72 h), HMC-1-8. Format: cell-based. Particulars: IC50, median, HMC-1-8, 72 h, read-out: Antiproli HMC-1-8 [M] median. The method in brief:
as §7

Data set [3] has as its system SUDHL5 cells. The data set can be described thus: Induction of cytotoxicity (CellTiter-Glo, 5 h), SUDHL5. Particulars: SUDHL5, 5 h.
Method: Therefore, cytotoxicity assays were run in parallel in SUDHL5 and SUDHL10 cells.
The different cell lines were plated in culture medium (RPMI 1640 [GIBCO #22400-089] supplemented with 10% Fetal Bovine Serum) at a density of 3,300 cells in 30 μL/well in a sterile, solid black, flat bottom, polystyrene, TC-treated 384-well microplate (Corning #3571) using Multidrop Combi Reagent Dispenser. As a control, medium without cells was also added to the plate. Cells were incubated in a humidified incubator at 37° C. overnight. […] Rim wells were excluded. The cells were incubated for 5 h hours in a humidified incubator at 37° C. After this incubation, 30 μL of CellTiter-Glo® Luminescent Cell Viability reagent (Promega, G7573) was added to each well using the Multidrop Combi Reagent Dispenser, followed by 15 min incubation on a shaker at room temperature. Finally, luminescence was read at 0.1 ms, with a gain of 3000 using the PHERAstar FS microplate reader (BMG Labtech).
For data set [4], the system named is SUDHL5 cells. Put plainly: Antiproliferation assay (CellTiter-Glo, 72 h), SUDHL5. Format: cell-based. The note with it: IC50, median, SUDHL5, 72 h, read-out: Antiproli SUDHL5 [M] (median). The method in brief:
as §7

For a further data set, the system named is MV-4-11 cells. Put plainly: Antiproliferation assay (CellTiter-Glo, 72 h), MV-4-11. Format: cell-based. The note with it: IC50, median; MV-4-11, 72 h; read-out: Antiproli MV-4-11 [M] median. As to the method:
as §2, §3, §4, §5, §6

For data set [5], the system named is SUDHL5 cells. Put plainly: Induction of caspase-3/7 activity (Caspase-Glo 3/7), SUDHL5. Format: cell-based. Particulars: EC50, median, SUDHL5, 3 h treatment. The method in brief: as §1
Where [6] appears, read: Homo sapiens, SU-DHL10, 5 h, read-out: Cytotox SUDHL10 [M] (median), IC50, median.
Where [7] appears, read: read-out: Cytotox SUDHL10 [M] (median), IC50, median.
The mark [8] stands for this setting: read-out: Cytotox SUDHL5 [M] (median), IC50, median.

Each structure is given as a SMILES string. Where a name gives a salt, the structure may show the parent alone. Read-outs that look alike come from different tables or passages of the source.

Compound `CCc1c2c(nn1C)COCCCCn1c(C(=O)O)c(CCCOc3cccc4cc(F)ccc34)c3ccc(Cl)c-2c31` (single isomer, unassigned; enantiomer 1) [Example 37, (+)-4-chloro-3-ethyl-7-{3-[(6-fluoronaphthalen-1-yl)oxy]propyl}-2-methyl-2,10,11,12,13,15-hexahydropyrazolo[4′,3′:9,10][1,6]oxazacycloundecino[8,7,6-hi]indole-8-carboxylic acid-N-ethylethanamine salt (Enantiomer 1)] showed an EC50 in the data set on SUDHL10 cells [1] (Homo sapiens, SU-DHL10, 3 h) of 330 nM. Also, the IC50 in the data set with DMS-114 cells stood at 1.12e-06 M; with SUDHL10 cells [2] (setting [6]) it was 4.3e-07 M; in the data set on AMO-1 cells (Homo sapiens, AMO1, 72 h), 3.6e-07 M; in the data set with SNU-389 cells (72 h), 1.05e-06 M; in the data set with HMC-1-8 cells (72 h), 1.6e-06 M.
With `Cc1c2c(nn1C)COCCCCn1c(C(=O)O)c(CCCOc3cccc4cc(F)ccc34)c3ccc(Cl)c-2c31` (single isomer, unassigned; enantiomer 2) [Example 17, (−)-4-chloro-7-{3-[(6-fluoronaphthalen-1-yl)oxy]propyl}-2,3-dimethyl-2,10,11,12,13,15-hexahydropyrazolo[4′,3′:9,10][1,6]oxazacycloundecino[8,7,6-hi]indole-8-carboxylic acid-N-ethylethanamine salt (Enantiomer 2)], the figures for the EC50 with SUDHL10 cells [1] and with SUDHL5 cells [5] were 380 nM and 290 nM, respectively. Moreover, the IC50 in the data set with SUDHL10 cells [2] (setting [7]) worked out at 6.6e-07 M; in the data set with SUDHL5 cells [3] (setting [8]) it was 2.2e-07 M; in the data set with SUDHL5 cells [4] it was 2.1e-07 M; with SNU-389 cells (IC50, median, SNU-389, 72 h), 9.86e-07 M; in the data set with MV-4-11 cells, 6.7e-06 M; in the data set with HMC-1-8 cells, 1.2e-06 M.
As to `CCc1c2c(nn1C)COCC(O)CCn1c(C(=O)O)c(CCCOc3cccc4cc(F)ccc34)c3ccc(Cl)c-2c31` (stereo not shown) [Example 100, 4-chloro-3-ethyl-7-{3-[(6-fluoronaphthalen-1-yl)oxy]propyl}-12-hydroxy-2-methyl-2,10,11,12,13,15-hexahydropyrazolo[4′,3′:9,10][1,6]oxazacycloundecino[8,7,6-hi]indole-8-carboxylic acid-N-ethylethanamine salt], the EC50 with SUDHL10 cells [1] was determined as 120 nM; in the data set with SUDHL5 cells [5], 220 nM. The IC50 in the data set on DMS-114 cells is 1.85e-07 M; in the data set with SUDHL10 cells [2] (setting [7]), 1.8e-07 M; in the data set with SUDHL5 cells [3] (setting [8]), 1.8e-07 M; in the data set on SUDHL5 cells [4] it was 1.9e-07 M; in the data set on AMO-1 cells, 6.7e-07 M; in the data set with SNU-389 cells (72 h) it was 1.18e-06 M. For the same compound, the IC50 in the data set on HMC-1-8 cells stood at 5e-06 M.
Consider `Cc1c2c(nn1C)COCCCCn1c(C(=O)O)c(CCCOc3cccc4ccccc34)c3ccc(Cl)c-2c31` (single isomer, unassigned; enantiomer 2) [Example 27, 4-chloro-2,3-dimethyl-7-[3-(naphthalen-1-yloxy)propyl]-2,10,11,12,13,15-hexahydropyrazolo-[4′,3′:9,10][1,6]oxazacycloundecino[8,7,6-hi]indole-8-carboxylic acid-N-ethylethanamine salt (Enantiomer 2)], for which the IC50 was found to be 7.8e-06 M in the data set on SUDHL5 cells [4] and 1.61e-05 M in the data set with MV-4-11 cells.
For the compound `CCc1nn(C)c2c1-c1c(Cl)ccc3c(CCCOc4cccc5cc(F)ccc45)c(C(=O)O)n(c13)CCCCN(C)C2` (single isomer, unassigned; enantiomer 2) [Example 41, 4-chloro-3-ethyl-7-{3-[(6-fluoronaphthalen-1-yl)oxy]propyl}-1,14-dimethyl-10,11,12,13,14,15-hexahydro-1H-pyrazolo[3′,4′:8,9][1,6]diazacycloundecino[10,11,1-hi]indole-8-carboxylic acid (Enantiomer 2)], the IC50 amounted to 3.65e-07 M with DMS-114 cells; 1.5e-07 M in the data set with SUDHL5 cells [4]; 5.4e-07 M in the data set on AMO-1 cells; 5.56e-07 M in the data set with SNU-389 cells (72 h); 7e-07 M in the data set on HMC-1-8 cells (72 h).
For `Cc1c2c(nn1C)COCCn1c(C(=O)O)c(CCCOc3cccc4ccccc34)c3ccc(Cl)c-2c31` (racemic) [Example 87, (rac)-11-chloro-9,10-dimethyl-1-{3-[(naphthalen-1-yl)oxy]propyl}-4,5,7,9-tetrahydropyrazolo[4′,3′:7,8][1,4]oxazonino[6,5,4-hi]indole-2-carboxylic acid], the EC50 worked out at 210 nM with SUDHL10 cells [1] (Homo sapiens, SU-DHL10, 3 h) and 170 nM with SUDHL5 cells [5] (Homo sapiens, SU-DHL-5, 3 h). The IC50 in the data set with DMS-114 cells is 1.32e-06 M; in the data set with SUDHL10 cells [2] (setting [6]), 2.6e-07 M; in the data set on SUDHL5 cells [4] (Homo sapiens, SU-DHL-5, 72 h), 5.5e-07 M; in the data set on AMO-1 cells (Homo sapiens, AMO1, 72 h), 3.8e-07 M; in the data set with SNU-389 cells (72 h) it was 1.52e-06 M; with HMC-1-8 cells (72 h), 4.7e-06 M.
Consider `Cc1c2c(nn1C)CN(C)CCCCn1c(C(=O)O)c(CCCOc3cccc4ccccc34)c3ccc(Cl)c-2c31` (single isomer, unassigned; enantiomer 2) [Example 13, (−)-4-chloro-2,3,14-trimethyl-7-[3-(naphthalen-1-yloxy)propyl]-10,11,12,13,14,15-hexahydro-2H-pyrazolo[3′,4′:8,9][1,6]diazacycloundecino[10,11,1-hi]indole-8-carboxylic acid-N-ethylethanamine salt (Enantiomer 2)], for which the IC50 in the data set with SUDHL5 cells [3] (setting [8]) was 6.9e-06 M; in the data set with SUDHL5 cells [4] it was 6.4e-06 M; in the data set with MV-4-11 cells it was 1.22e-05 M.
In the data set on SUDHL10 cells [1] (Homo sapiens, SU-DHL10, 3 h), `CCc1c2c(nn1C)CN(C)CCCCn1c(C(=O)O)c(CCCOc3cccc4cc(F)ccc34)c3ccc(Cl)c-2c31` (single isomer, unassigned; enantiomer 1) [Example 6, 4-chloro-3-ethyl-7-{3-[(6-fluoronaphthalen-1-yl)oxy]propyl}-2,14-dimethyl-10,11,12,13,14,15-hexahydro-2H-pyrazolo[3′,4′:8,9][1,6]diazacycloundecino[10,11,1-hi]indole-8-carboxylic acid (Enantiomer 1)] displayed an EC50 of 220 nM. The IC50 turned out to be 4.97e-07 M in the data set on DMS-114 cells; 3.6e-07 M in the data set with SUDHL10 cells [2] (setting [7]); 1.5e-07 M in the data set on SUDHL5 cells [3] (setting [8]); 2.4e-07 M in the data set on AMO-1 cells; 6.96e-07 M in the data set with SNU-389 cells (72 h); 3.4e-06 M in the data set with HMC-1-8 cells (72 h).
Consider `Cc1c2c(nn1C)COCC(F)(F)CCn1c(C(=O)O)c(CCCOc3cccc4ccccc34)c3ccc(Cl)c-2c31` (single isomer, unassigned; enantiomer 1) [Example 56, 4-chloro-12,12-difluoro-2,3-dimethyl-7-{3-[(naphthalen-1-yl)oxy]propyl}-2,10,11,12,13,15-hexahydropyrazolo[4′,3′:9,10][1,6]oxazacycloundecino[8,7,6-hi]indole-8-carboxylic acid-N-ethylethanamine salt—Enantiomer 1], for which the EC50 in the data set on SUDHL10 cells [1] amounted to 310 nM; in the data set with SUDHL5 cells [5], 130 nM. In addition, the IC50 in the data set with DMS-114 cells was 7.79e-07 M; in the data set with SUDHL10 cells [2] (setting [7]), 3.3e-07 M; with SUDHL5 cells [3] (setting [8]), 2.2e-07 M; with SUDHL5 cells [4], 3.4e-07 M; in the data set with AMO-1 cells, 4.4e-07 M; in the data set with SNU-389 cells (72 h), 1.23e-06 M. For the same compound, the IC50 in the data set with HMC-1-8 cells was found to be 3.3e-06 M.
`CCc1nn(C)c2c1-c1c(Cl)ccc3c(CCCOc4cccc5cc(F)ccc45)c(C(=O)O)n(c13)CCCCN(C)C2` (racemic) [Example 39, (rac)-4-chloro-3-ethyl-7-{3-[(6-fluoronaphthalen-1-yl)oxy]propyl}-1,14-dimethyl-10,11,12,13,14,15-hexahydro-1H-pyrazolo[3′,4′:8,9][1,6]diazacycloundecino[10,11,1-hi]indole-8-carboxylic acid] had an EC50 in the data set with SUDHL10 cells [1] (Homo sapiens, SU-DHL10, 3 h) of 150 nM. The IC50 came out at 6.38e-07 M with DMS-114 cells; 2.4e-07 M in the data set with SUDHL10 cells [2] (setting [6]); 1.5e-07 M in the data set on SUDHL5 cells [3] (Homo sapiens, SU-DHL-5, 5 h, read-out: Cytotox SUDHL5 [M] (median), IC50, median); 2.4e-07 M in the data set with AMO-1 cells (Homo sapiens, AMO1, 72 h); 1.09e-06 M in the data set with SNU-389 cells (72 h); 3.3e-06 M in the data set on HMC-1-8 cells (72 h).
